{
  "source": "patent US9114119B2",
  "about": "“Use of serine palmitoyl transferase inhibitors for preventing and delaying inherited retinal degenerations and compositions thereof” (Universita' degli Studi di Milano, priority 2009, dated 2015)",
  "key": {"[1]": {"system": "retinal morphology of rd10, wt and Thy1-GFP mice", "settings": "mouse, in vivo"}, "[2]": {"system": "pyknotic photoreceptors of rd10 mice", "assay": "Pyknotic photoreceptor count after intravitreal injection", "format": "in vivo, mouse", "procedure": "(§1) Single intravitreal injections of 500 nanoliters of myriocin (188 mM) were administered to the right eye of rd10 and wt mice aged P19. The vehicle alone (DMSO) was injected into the left eye of the same animals. The left and right retinas were isolated at P21, and treated separately for the biochemical ceramide test as explained above.\nThe animals injected at P19 were collected at P21, and their eyes were enucleated and fixed. The left and right retinas were isolated, stained with fluorescent DNA-binding molecules, and mounted on slides. The external nuclear layer which contains the photoreceptor cores was sampled under the confocal microscope at regular intervals along the four retinal meridians. The images were exported to a computerised workstation, and the pyknotic photoreceptors were counted in each scanned field. The total number of pyknotic photoreceptors was calculated for each pair of treated and control retinas."}, "rd10 and wt mice": {"system": "rd10 and wt mice", "assay": "Toxicity studies of intraocular injections", "format": "in vivo, mouse", "description": "It should be noted that myriocin has only rarely been used in vivo to date, and never injected intraocularly. The dose was chosen on the basis of the available literature on cultured cells, calculating a dilution of ⅞ times, due to the vitreous humour. A time window was selected for intraocular administration which preceded the peak death of the apoptotic photoreceptors, for the crucial reason of preventing the majority of photoreceptors from entering the apoptotic cycle."}, "[3]": {"system": "photoreceptors of rd10 mice", "settings": "mouse, in vivo", "description": "The functional recovery of the photoreceptors was studied by recording a flash electroretinogram (ERG), a technique widely used to test the retinal physiology of human patients, especially those suffering from RP."}, "[4]": {"system": "endogenous ceramide in the retina of wt mice", "assay": "Retinal endogenous ceramide levels (diacylglycerol kinase test) after single intravitreal injection, wt mice", "format": "in vivo, mouse", "settings": "single intravitreal injection 500 nanoliters 188 mM at P19, retinas isolated at P21", "procedure": "(§2) The levels of the sphingolipid endogenous ceramide were tested after isolation of the retina from anaesthetised rd10 mutant and wild-type (wt) mice of various age groups. The isolated retinas were treated for lipid extraction, and the total endogenous ceramide/inorganic phosphate ratio was determined with the diacylglycerol kinase test.\nas §1"}, "[5]": {"system": "photoreceptors of rd10 mice", "assay": "Rows of photoreceptor nuclei in the outer nuclear layer (ONL) after nanosphere eyedrops", "format": "in vivo", "settings": "rd10 mice aged P24, MYR-SLN treated vs control mouse (FIG. 1a)", "description": "Following ERG recordings, animals were enucleated, their eyes fixed and sectioned and retinal sections stained with fluorescent nuclear dyes to evaluate the thickness of the outer nuclear layer (ONL) and the overall retinal morphology.\nA quantitative analysis of the average number of rows of nuclei in the ONL of MYR-SLN and U-SLN (Unloaded-Solid Lipid Nanospheres) treated mice is given in FIG. 1b."}, "[6]": {"system": "endogenous ceramide in the retina of rd10 mutant mice", "assay": "Retinal endogenous ceramide levels (diacylglycerol kinase test) after single intravitreal injection, rd10 mice", "format": "in vivo, mouse", "settings": "single intravitreal injection 500 nanoliters 188 mM at P19, retinas isolated at P21", "procedure": "as §2, §1"}},
  "data": [
    {"smiles": "CCCCCCC(=O)CCCCCC/C=C/C[C@@H](O)[C@H](O)[C@@](N)(CO)C(=O)O", "note": "[myriocin]", "values": [
      {"measurement": "morphology of ganglion cells and retinal stratification", "setting": "[1]", "value": "excellent maintenance of the morphology of the ganglion cell and structure"},
      {"measurement": "retinal morphology", "setting": "[1]", "value": "normal retinal morphologies"},
      {"measurement": "reduction of photoreceptor death rate (pyknotic photoreceptor count)", "setting": "[2]; rd10 mice injected at P19, collected at P21, vs DMSO eye, n=17", "value": "approx. 50%"},
      {"measurement": "number of pyknotic (dying) photoreceptors", "setting": "[2]; rd10 mutant mice, intravitreal injection", "value": "marked reduction"},
      {"measurement": "adverse effects of intraocular injections", "setting": "rd10 and wt mice; rd10 or wt mice", "value": "do not cause adverse effects"},
      {"measurement": "inflammatory response symptoms or increased ocular reactivity", "setting": "rd10 and wt mice; treated animals, intraocular injection", "value": "no general or local inflammatory response symptoms"},
      {"measurement": "recovery of ERG response", "setting": "[3]", "value": "no recovery of ERG response/reaction"},
      {"measurement": "retinal ceramide levels", "setting": "[4]", "value": "did not significantly reduce"},
      {"measurement": "number of preserved nuclear rows in the ONL", "setting": "[5]", "value": "significantly higher"},
      {"measurement": "retinal ceramide levels vs control (DMSO) eyes", "setting": "[6]", "value": "Significantly lower ceramide levels"}
    ]}
  ]
}
